Data from patent publication US20140005163A1 (NOVARTIS AG, priority 2010, published 2014).

Tests used:
PI3K alpha = molecular target: T1, PI3K alpha (Homo sapiens, UniProt P42336); assay: PI3K alpha kinase assay (Kinase-Glo luminescence); type: biochemical
T1 construct: p85(iSH2) fusion partner (see partner chain) (N); His tag (C); made in house; host or cells: baculovirus; Tn5 (Trichoplusia ni) or TiniPro insect cells
Method in brief: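 Compounds are titrated at 8 concentrations and mixed with PI3Kα protein (EMV B1075, 10 nM) in phosphatidylinositol (10 μg/mL). ATP at 1 μM starts the 60-minute room-temperature reaction, which is stopped with Kinase-Glo before luminescence reading. Four-parameter curve fitting gives IC50.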

PI3K beta = molecular target: T2, PI3K beta (Homo sapiens, UniProt P42338); assay: PI3K beta kinase assay (Kinase-Glo luminescence); type: biochemical
T2 construct: for the full-length p110-b subunit are generated and fused by overlapping PCR; p85(iSH2) fusion partner (see partner chain) (N); His tag (C); made in house; host or cells: baculovirus; Tn5 (Trichoplusia ni) or TiniPro insect cells
T2 sequence (P42338 with tags, fused parts or gaps limits assumed): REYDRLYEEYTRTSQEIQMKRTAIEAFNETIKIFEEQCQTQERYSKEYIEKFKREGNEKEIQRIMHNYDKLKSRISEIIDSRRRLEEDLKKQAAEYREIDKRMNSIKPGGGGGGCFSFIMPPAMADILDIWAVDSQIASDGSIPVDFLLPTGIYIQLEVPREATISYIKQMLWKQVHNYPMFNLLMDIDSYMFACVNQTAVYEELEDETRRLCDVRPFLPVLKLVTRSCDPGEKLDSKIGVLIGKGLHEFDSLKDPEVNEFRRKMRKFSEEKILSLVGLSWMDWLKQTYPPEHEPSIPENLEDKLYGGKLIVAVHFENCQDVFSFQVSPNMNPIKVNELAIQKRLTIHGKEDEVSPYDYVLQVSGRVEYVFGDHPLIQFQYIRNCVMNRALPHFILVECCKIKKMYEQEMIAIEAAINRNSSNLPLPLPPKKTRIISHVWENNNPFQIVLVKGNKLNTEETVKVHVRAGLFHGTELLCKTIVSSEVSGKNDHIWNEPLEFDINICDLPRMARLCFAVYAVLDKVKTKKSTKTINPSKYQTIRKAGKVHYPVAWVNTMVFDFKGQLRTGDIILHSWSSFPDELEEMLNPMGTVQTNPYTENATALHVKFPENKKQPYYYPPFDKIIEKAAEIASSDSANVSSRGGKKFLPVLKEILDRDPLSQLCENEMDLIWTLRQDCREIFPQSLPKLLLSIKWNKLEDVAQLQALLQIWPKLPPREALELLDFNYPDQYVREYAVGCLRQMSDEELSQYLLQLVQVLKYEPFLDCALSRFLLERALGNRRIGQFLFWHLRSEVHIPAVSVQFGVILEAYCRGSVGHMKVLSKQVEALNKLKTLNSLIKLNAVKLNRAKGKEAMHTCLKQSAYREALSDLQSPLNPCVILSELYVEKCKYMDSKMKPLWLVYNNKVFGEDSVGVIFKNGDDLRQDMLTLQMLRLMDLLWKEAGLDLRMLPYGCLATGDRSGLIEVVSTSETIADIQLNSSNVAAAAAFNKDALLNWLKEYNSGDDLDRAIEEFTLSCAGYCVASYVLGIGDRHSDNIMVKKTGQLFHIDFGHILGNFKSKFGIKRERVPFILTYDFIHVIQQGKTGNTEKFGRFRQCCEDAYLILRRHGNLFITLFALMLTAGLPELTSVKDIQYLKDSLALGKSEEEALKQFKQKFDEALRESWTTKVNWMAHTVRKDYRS
Method in brief: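 Kinase-Glo luminescence after a 60 min room-temperature reaction gives remaining ATP. The reaction holds 25 nM p85(iSH2)-p110β full-length His-tagged construct, 1 μM ATP, 10 μg/mL PI, and eight compound concentrations at 0.45% DMSO final. IC50 values come from a four-parameter logistic fit.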

mTOR = molecular target: T3, mTOR (Homo sapiens, UniProt P42345); assay: Biochemical assay for m-TOR by TR-FRET; conditions: 8 μM ATP, 400 nM GFP-4EBP1, 0.5 nM mTOR
T3 construct: purchased Invitrogen Corporation (Carlsbad/CA, USA) PV4753
T3 sequence (P42345 1360-2549 limits assumed): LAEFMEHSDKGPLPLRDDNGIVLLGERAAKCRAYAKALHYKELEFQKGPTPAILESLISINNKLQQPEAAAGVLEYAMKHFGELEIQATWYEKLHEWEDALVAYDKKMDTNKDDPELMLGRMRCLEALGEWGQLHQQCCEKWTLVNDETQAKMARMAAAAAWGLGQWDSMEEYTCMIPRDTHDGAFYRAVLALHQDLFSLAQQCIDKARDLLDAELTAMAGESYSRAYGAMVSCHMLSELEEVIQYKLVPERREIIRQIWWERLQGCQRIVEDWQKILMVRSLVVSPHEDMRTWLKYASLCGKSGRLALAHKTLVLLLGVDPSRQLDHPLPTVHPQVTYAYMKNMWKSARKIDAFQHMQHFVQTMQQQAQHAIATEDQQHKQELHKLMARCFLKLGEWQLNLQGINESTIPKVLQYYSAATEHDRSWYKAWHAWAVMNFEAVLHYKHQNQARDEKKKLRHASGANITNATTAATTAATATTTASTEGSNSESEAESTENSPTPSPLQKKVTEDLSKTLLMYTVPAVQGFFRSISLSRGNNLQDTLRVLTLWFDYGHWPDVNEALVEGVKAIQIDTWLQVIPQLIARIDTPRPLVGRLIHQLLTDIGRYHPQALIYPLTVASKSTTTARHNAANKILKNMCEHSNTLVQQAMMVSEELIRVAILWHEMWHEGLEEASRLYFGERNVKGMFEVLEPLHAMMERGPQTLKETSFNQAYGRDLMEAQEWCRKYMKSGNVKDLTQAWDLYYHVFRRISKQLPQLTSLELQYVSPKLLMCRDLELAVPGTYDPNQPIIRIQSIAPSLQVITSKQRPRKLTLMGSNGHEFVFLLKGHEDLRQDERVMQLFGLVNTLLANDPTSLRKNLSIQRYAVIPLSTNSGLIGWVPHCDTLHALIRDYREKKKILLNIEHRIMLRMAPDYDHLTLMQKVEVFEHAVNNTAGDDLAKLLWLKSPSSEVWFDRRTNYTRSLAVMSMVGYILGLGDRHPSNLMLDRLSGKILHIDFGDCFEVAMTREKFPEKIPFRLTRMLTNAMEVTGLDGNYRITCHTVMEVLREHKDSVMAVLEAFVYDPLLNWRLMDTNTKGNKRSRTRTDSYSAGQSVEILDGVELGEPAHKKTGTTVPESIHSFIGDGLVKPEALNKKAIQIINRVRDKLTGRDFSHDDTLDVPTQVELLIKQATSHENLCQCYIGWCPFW
Method in brief: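 TR-FRET read-out: Tb-labelled anti-p4EBP1 pThr46 antibody (0.5 nM), added in EDTA to stop the reaction, detects phosphorylated GFP-4EBP1 after 15 min. Kinase step used 0.5 nM mTOR, 400 nM substrate, 8 μM ATP, MnCl2-containing HEPES buffer pH 7.5, room temperature.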

T1 sequence (P42336 with tags, fused parts or gaps limits assumed): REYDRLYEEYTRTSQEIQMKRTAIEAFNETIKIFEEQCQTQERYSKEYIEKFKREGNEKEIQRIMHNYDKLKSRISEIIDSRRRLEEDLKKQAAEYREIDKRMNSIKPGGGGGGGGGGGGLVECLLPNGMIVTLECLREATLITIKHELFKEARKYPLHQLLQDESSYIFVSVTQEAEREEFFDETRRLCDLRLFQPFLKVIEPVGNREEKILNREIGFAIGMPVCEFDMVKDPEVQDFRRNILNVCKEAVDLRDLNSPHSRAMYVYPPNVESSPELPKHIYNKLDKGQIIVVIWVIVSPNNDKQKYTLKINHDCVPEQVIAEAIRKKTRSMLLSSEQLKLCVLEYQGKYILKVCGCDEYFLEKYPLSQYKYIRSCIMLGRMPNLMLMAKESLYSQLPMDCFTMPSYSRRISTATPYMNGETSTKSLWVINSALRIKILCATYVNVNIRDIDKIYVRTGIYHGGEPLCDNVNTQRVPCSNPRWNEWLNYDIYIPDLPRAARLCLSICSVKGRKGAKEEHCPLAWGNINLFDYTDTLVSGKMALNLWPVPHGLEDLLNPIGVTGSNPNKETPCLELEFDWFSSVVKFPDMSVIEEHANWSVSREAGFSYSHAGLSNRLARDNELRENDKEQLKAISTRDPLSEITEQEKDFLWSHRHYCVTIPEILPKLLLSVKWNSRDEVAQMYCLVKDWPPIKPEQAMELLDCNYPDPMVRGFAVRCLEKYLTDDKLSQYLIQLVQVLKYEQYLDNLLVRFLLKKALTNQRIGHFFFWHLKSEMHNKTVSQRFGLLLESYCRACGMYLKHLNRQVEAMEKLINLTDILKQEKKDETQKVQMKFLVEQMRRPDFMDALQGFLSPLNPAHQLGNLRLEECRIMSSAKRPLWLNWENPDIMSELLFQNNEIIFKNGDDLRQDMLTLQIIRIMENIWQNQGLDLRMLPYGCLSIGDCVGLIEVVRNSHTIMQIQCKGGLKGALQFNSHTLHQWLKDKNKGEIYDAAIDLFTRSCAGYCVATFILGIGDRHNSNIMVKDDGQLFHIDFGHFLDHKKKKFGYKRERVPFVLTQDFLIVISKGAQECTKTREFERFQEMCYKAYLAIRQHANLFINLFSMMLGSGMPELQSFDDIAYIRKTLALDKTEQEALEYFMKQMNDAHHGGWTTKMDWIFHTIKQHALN

SMILES	IC50 (PI3K alpha) [µM]	IC50 (PI3K beta) [µM]	IC50 (mTOR) [µM]
Cc1nn(C)cc1-n1c(=O)n(C)c2cnc3ccc(-c4cccc(OC(C)C)c4F)cc3c21 [Example 83, 1-(1,3-Dimethyl-1H-pyrazol-4-yl)-8-(2-fluoro-3-isopropoxy-phenyl)-3-methyl-1,3-dihydro-imidazo[4,5-c]quinolin-2-one]	0.074	–	0.061
CCNc1cc(-c2ccc3ncc4c(c3c2)n(-c2cn(C)nc2Cl)c(=O)n4C)cnc1OC [Example 90.1, 1-(3-Chloro-1-methyl-1H-pyrazol-4-yl)-8-(5-ethylamino-6-methoxy-pyridin-3-yl)-3-methyl-1,3-dihydro-imidazo[4,5-c]quinolin-2-one]	0.043	0.039	0.005
Cc1nn(C)cc1-n1c(=O)n(C)c2cnc3ccc(-c4ccc5c(c4)CCN5C)cc3c21 [Example 50, 1-(1,3-Dimethyl-1H-pyrazol-4-yl)-3-methyl-8-(1-methyl-2,3-dihydro-1H-indol-5-yl)-1,3-dihydro-imidazo[4,5-c]quinolin-2-one]	0.188	–	0.157
CNc1ncc(-c2ccc3ncc4c(c3c2)n(-c2c(C)noc2C)c(=O)n4C)cc1Cl [Example 146.6, 8-(5-Chloro-6-methylamino-pyridin-3-yl)-1-(3,5-dimethyl-isoxazol-4-yl)-3-methyl-1,3-dihydro-imidazo[4,5-c]quinolin-2-one]	0.092	0.281	0.479
Cc1c(-n2c(=O)n(C)c3cnc4ccc(-c5ccc(N(C)C)nc5)cc4c32)cnn1C [Example 4.4, 8-(6-Dimethylamino-pyridin-3-yl)-1-(1,5-dimethyl-1H-pyrazol-4-yl)-3-methyl-1,3-dihydro-imidazo[4,5-c]quinolin-2-one]	0.045	0.733	0.1
CC(=O)Nc1cc(-c2ccc3ncc4c(c3c2)n(-c2cn(C)nc2C)c(=O)n4C)cnc1Cl [Example 222, N-{2-Chloro-5-[1-(1,3-dimethyl-1H-pyrazol-4-yl)-3-methyl-2-oxo-2,3-dihydro-1H-imidazo[4,5-c]quinolin-8-yl]-pyridin-3-yl}-acetamide]	0.043	0.134	0.022
CCN(CC)C(=O)Cn1cc(-n2c(=O)n(C)c3cnc4ccc(-c5cnc(N6CCCC6)nc5)cc4c32)c(C)n1 [Example 247.1, N,N-Diethyl-2-{3-methyl-4-[3-methyl-2-oxo-8-(2-pyrrolidin-1-yl-pyrimidin-5-yl)-2,3-dihydro-imidazo[4,5-c]quinolin-1-yl]-pyrazol-1-yl}-acetamide]	0.093	–	0.013
CCn1cc(-n2c(=O)n(C)c3cnc4ccc(-c5ccc(COC)nc5)cc4c32)c(C)n1 [Example 104, 1-(1-Ethyl-3-methyl-1H-pyrazol-4-yl)-8-(6-methoxymethyl-pyridin-3-yl)-3-methyl-1,3-dihydro-imidazo[4,5-c]quinolin-2-one]	0.079	–	0.053
Cc1nn(C)cc1-n1c(=O)n(C)c2cnc3ccc(-c4ccc(OCC5CC5)nc4)cc3c21 [Example 42, 8-(6-Cyclopropylmethoxy-pyridin-3-yl)-1-(1,3-dimethyl-1H-pyrazol-4-yl)-3-methyl-1,3-dihydro-imidazo[4,5-c]quinolin-2-one]	0.07	–	0.065
CCOc1ccc(-c2ccc3ncc4c(c3c2)n(-c2cn(CCOC)nc2C)c(=O)n4C)cn1 [Example 131, 8-(6-Ethoxy-pyridin-3-yl)-1-[1-(2-methoxy-ethyl)-3-methyl-1H-pyrazol-4-yl]-3-methyl-1,3-dihydro-imidazo[4,5-c]quinolin-2-one]	0.161	–	0.143
Cc1cc(-n2c(=O)n(C)c3cnc4ccc(-c5cncc(N6CCOCC6)c5)cc4c32)n(C)n1 [Example 175.2, 1-(2,5-Dimethyl-2H-pyrazol-3-yl)-3-methyl-8-(5-morpholin-4-yl-pyridin-3-yl)-1,3-dihydro-imidazo[4,5-c]quinolin-2-one]	0.199	–	0.155

Further compounds by falling IC50 (PI3K alpha), results first:

IC50 (PI3K alpha) [µM]	IC50 (PI3K beta) [µM]	IC50 (mTOR) [µM]	SMILES
0.042	0.288	0.12	CNc1ncc(-c2ccc3ncc4c(c3c2)n(-c2c(C)nn(C)c2C)c(=O)n4C)cn1 [Example 80.2]
0.033	0.228	0.034	CCn1cc(-n2c(=O)n(C)c3cnc4ccc(-c5ccc(CO)nc5)cc4c32)c(C)n1 [Example 16.1, 1-(1-ethyl-3-methyl-1H-pyrazol-4-yl)-8-(6-hydroxymethyl-pyridin-3-yl)-3-methyl-1,3-dihydro-imidazo[4,5-c]quinolin-2-one]
0.029	0.103	0.174	Cc1nn(C)cc1-n1c(=O)n(C)c2cnc3ccc(-c4cnc(CO)c(Cl)c4)cc3c21 [Example 238, 8-(5-Chloro-6-hydroxymethyl-pyridin-3-yl)-1-(1,3-dimethyl-1H-pyrazol-4-yl)-3-methyl-1,3-dihydro-imidazo[4,5-c]quinolin-2-one]
0.022	–	0.099	Cc1nn(CC(=O)N(C)C)c(C)c1-n1c(=O)n(C)c2cnc3ccc(-c4ccc(-n5cccn5)cc4)cc3c21 [Example 51.4, 2-{3,5-Dimethyl-4-[3-methyl-2-oxo-8-(4-pyrazol-1-yl-phenyl)-2,3-dihydro-imidazo[4,5-c]quinolin-1-yl]pyrazol-1-yl}-N,N-dimethyl-acetamide]
0.019	0.111	0.113	[2H]C([2H])([2H])Nc1ncc(-c2ccc3ncc4c(c3c2)n(-c2c(C)nn(C)c2C)c(=O)n4C)cc1C(F)(F)F [Example 143, 3-Methyl-8-(6-trideuteromethylamino-5-trifluoromethyl-pyridin-3-yl)-1-(1,3,5-trimethyl-1H-pyrazol-4-yl)-1,3-dihydro-imidazo[4,5-c]quinolin-2-one]
0.013	0.291	0.011	COc1ccc(-c2ccc3ncc4c(c3c2)n(-c2cn(CC(=O)N(C)C)nc2C)c(=O)n4C)cn1 [Example 102, 2-{4-[8-(6-Methoxy-pyridin-3-yl)-3-methyl-2-oxo-2,3-dihydro-imidazo[4,5-c]quinolin-1-yl]-3-methyl-pyrazol-1-yl}-N,N-dimethyl-acetamide]
0.009	0.041	< 0.003	CNc1ccc(-c2ccc3ncc4c(c3c2)n(-c2cn(C)nc2Cl)c(=O)n4C)cn1 [Example 118.5, 1-(3-Chloro-1-methyl-1H-pyrazol-4-yl)-3-methyl-8-(6-methylamino-pyridin-3-yl)-1,3-dihydro-imidazo[4,5-c]quinolin-2-one]
0.009	0.013	0.003	COc1ncc(-c2ccc3ncc4c(c3c2)n(-c2cn(C)nc2Cl)c(=O)n4C)cc1CO [Example 200, 1-(3-Chloro-1-methyl-1H-pyrazol-4-yl)-8-(5-hydroxymethyl-6-methoxy-pyridin-3-yl)-3-methyl-1,3-dihydro-imidazo[4,5-c]quinolin-2-one]
0.008	0.013	0.012	Cc1nn(C)cc1-n1c(=O)n(C)c2cnc3ccc(-c4cncc(C(C)O)c4)cc3c21 (racemic) [Example 217, (rac)-1-(1,3-Dimethyl-1H-pyrazol-4-yl)-8-[5-(1-hydroxy-ethyl)-pyridin-3-yl]-3-methyl-1,3-dihydro-imidazo[4,5-c]quinolin-2-one]
